According to patent US20250188092A1, “RIFAMYCIN ANALOGS” (THE REGENTS OF THE UNIVERSITY OF MICHIGAN, priority 2021, published 2025):
Converted amounts (≈) assume the structure as drawn. Like-named read-outs stand apart in the source and are kept apart here.

Key:
[1] = system: M. tuberculosis transformed with luxABCDE; assay: microbe, parasite or virus in culture; assay type: cell-based, Mycobacterium tuberculosis; settings: for MBC: ≥99% reduction in luminescence, read-out: MBC99 Day 7 (Lux Assay) MBC
[2] = biological target: β-S450L (RIF^R) MTB RNAP (Mycobacterium tuberculosis, UniProt P9WGY9, S456L); settings: read-out: RNAP IC50 MTB S450L
[3] = system: non-replicating cultures of M. tuberculosis H37Rv transformed with lux ABCDE; assay: microbe, parasite or virus in culture; assay type: cell-based, Mycobacterium tuberculosis; settings: for MIC90: ≥90% reduction in luminescence, read-out: MIC90 LORA; for MIC90 LORA/MABA: ratio of LORA MIC90 to MABA MIC90
[4] = Mycobacterium tuberculosis, 168 h
[5] = Mycobacterium tuberculosis, H37RV

Structure (SMILES) | MBC [1] [µM] | IC50 [2] [µM] | MIC90 LORA Rel to RMP [3] | MIC90 [3] [µM] | MIC90 LORA/MABA [3] | MBC99 Day 7 (Lux Assay) MBC Rel to RMP [1] | MBC [1, 4] [µM] | MIC90 [3, 5] [µM]
CO[C@H]1/C=C/O[C@@]2(C)Oc3c(C)c(O)c4c(=O)c(c5oc6cc(N7CCC(CC(=O)O)CC7)cc(N7CCC(CC(=O)O)CC7)c6nc-5c4c3C2=O)NC(=O)/C(C)=C\C=C\[C@H](C)[C@H](O)[C@@H](C)[C@@H](O)[C@@H](C)[C@H](OC(C)=O)[C@@H]1C [Compound 17v, 2-{1-[(7S,9E,11S,12R,13S,14R,15R,16R,17S,18S,19E,21Z)-13-(acetyloxy)-32-[4-(carboxymethyl)piperidin-1-yl]-2,15,17-trihydroxy-11-methoxy-3,7,12,14,16,18,22-heptamethyl-6,23,37-trioxo-8,27,38-trioxa-24,34-diazahexacyclo-[23.11.1.1^4,7.0^5,36.0^26,35.0^28,33]octatriaconta-1,3,5(36)9,19,21,25,28,30,32,34-undecaen-30-yl]piperidin-4-yl)acetic acid] | >0.1 | 66 | – | – | – | – | – | –
CO[C@H]1/C=C/O[C@@]2(C)Oc3c(C)c(O)c4c(=O)c(c5oc6cc(N7CCC(CC(=O)O)CC7)cc(OCc7ccc(CN8CCOCC8)cc7)c6nc-5c4c3C2=O)NC(=O)/C(C)=C\C=C\[C@H](C)[C@H](O)[C@@H](C)[C@@H](O)[C@@H](C)[C@H](OC(C)=O)[C@@H]1C [Compound 17l, 2-{1-[(7S,9E,11S,12R,13S,14R,15R,16R,17S,18S,19E,21Z)-13-(acetyloxy)-2,15,17-trihydroxy-11-methoxy-3,7,12,14,16,18,22-heptamethyl-32-{[4-(morpholin-4-ylmethyl)phenyl]methoxy}-6,23,37-trioxo-8,27,38-trioxa-24,34-diazahexacyclo-[23.11.1.1^4,7.0^5,36.0^26,35.0^28,33]octatriaconta-1,3,5(36)9,19,21,25,28,30,32,34-undecaen-30-yl]piperidin-4-yl)acetic acid] | >0.1 | 22 | 31 | 0.843 (≈ 0.954 µg/mL) | 4.5 | – | – | –
CO[C@H]1/C=C/O[C@@]2(C)Oc3c(C)c(O)c4c(=O)c(c5oc6cc(N7CCN(C(=O)c8cccc(-c9ccccn9)c8)CC7)cc(OCc7ccc(CN8CCOCC8)cc7)c6nc-5c4c3C2=O)NC(=O)/C(C)=C\C=C\[C@H](C)[C@H](O)[C@@H](C)[C@@H](O)[C@@H](C)[C@H](OC(C)=O)[C@@H]1C [Compound 17r, (7S,9E,11S,12R,13S,14R,15R,16R,17S,18S,19E,21Z)-2,15,17-trihydroxy-11-methoxy-3,7,12,14,16,18,22-heptamethyl-32-{[4-(morpholin-4-ylmethyl)phenyl]methoxy}-6,23,37-trioxo-30-(4-{[3-(pyridin-2-yl)phenyl]carbonyl}piperazin-1-yl)-8,27,38-trioxa-24,34-diazahexacyclo[23.11.1.1^4,7.0^5,36.0^26,35.0^28,33]octatriaconta-1,3,5(36)9,19,21,25,28,30,32,34-undecaen-13-yl acetate] | 0.205 | 77 | 2.60 | 0.13 | 5.7 | 0.46 | – | –
CCC(=O)N1CCN(Cc2cccc(COc3cccc4oc5c6c(=O)c7c(O)c(C)c8c(c7c-5nc34)C(=O)[C@@](C)(O/C=C/[C@H](OC)[C@@H](C)[C@@H](OC(C)=O)[C@H](C)[C@H](O)[C@H](C)[C@@H](O)[C@@H](C)/C=C/C=C(/C)C(=O)N6)O8)c2)CC1 [Compound 11d, (7S,9E,11S,12R,13S,14R,15R,16R,17S,1S,19E,21Z)-2,15,17-Trihydroxy-11-methoxy-3,7,12,14,16,18,22-heptamethyl-6,23,37-trioxo-32-{(3-[(4-propanoylpiperazin-1-yl)methyl]phenyl}methoxy)-8,27,38-trioxa-24,34-diazahexacyclo[23.11.1.1^4,7.0^5,36.0^26,35.0^28,33]octatriaconta-1(36)2,4,9,19,21,25,28,30,32,34-undecaen-13-yl acetate] | – | – | – | – | – | 0.08 | 0.058 | < 0.1
CO[C@H]1/C=C/O[C@@]2(C)Oc3c(C)c(O)c4c(=O)c(c5oc6cc(N7CCN(C(=O)c8cccc(-c9ccccn9)c8)CC7)cc(C)c6nc-5c4c3C2=O)NC(=O)/C(C)=C\C=C\[C@H](C)[C@H](O)[C@@H](C)[C@@H](O)[C@@H](C)[C@H](OC(C)=O)[C@@H]1C [Compound 29b, (7S,9E,11S,12R,13S,14R,15R,16R,17S,18S,19E,21Z)-2,15,17-Trihydroxy-11-methoxy-3,7,12,14,16,18,22,32-octamethyl-6,23,37-trioxo-30-(4-[3-(pyridin-2-yl)benzoyl]piperazin-1-yl)-8,27,38-trioxa-24,34-diazahexacyclo-[23.11.1.1^4,7.0^5,36.0^26,35.0^28,33]octatriaconta-1(36)2,4,9,19,21,25,28,30,32,34-undecaen-13-yl acetate] | – | – | 0.03 | – | 0.7 | 0.11 | 0.05 | 0.006
